# According to publication PMC8960621, “Solution speciation and human serum protein binding of indium(III) complexes of 8-hydroxyquinoline, deferiprone and maltol” (Journal of Biological Inorganic Chemistry, 2022):
# “And” between values parts separate entries of the source, which are not always exact repeats. Identical values can stand only once.
# Columns and labels:
# [1] = target: T1, HSA (Homo sapiens, UniProt P02768); assay: Fluorescence lifetime (TCSPC) of the complexes in the presence of HSA; format: binding; settings: additional lifetime component in the presence of HSA (2–10 μM), 10 μM complex, pH 7.40
# T1 construct: purchased Sigma-Aldrich A8763
# Description: The fluorescence lifetime of InQ3 was determined in the absence and presence of HSA. […] GaQ3 behaves similarly (Table 2), while lifetimes of InD3 were too short (τ ≤ 0.2 ns) for accurate determination with our instrument. By the addition of HSA to the complex, two additional lifetime components appeared for InQ3: τ3 = 5.7 ± 0.3 ns and τ4 = 13.8 ± 0.6 ns, which correspond to the HSA bound forms. […] The GaQ3 ‒ HSA system could be characterized with similar lifetime parameters (Table 2).
# Fluorescence lifetime was measured on the same fluorometer equipped with a DeltaHub time-correlated single photon counting (TCSPC) controller applying NanoLED light sources N-300 (λmax = 300 nm) and N-350 (λmax = 355 nm) (Horiba Jobin Yvon). The background (obtained with blank samples) was subtracted from the decay of the samples. The program DAS6 (version 6.6.; Horiba, Jobin Yvon) was used for the analysis of the experimental fluorescence decays. The fluorescence intensity decay over time is described by a sum of exponentials,1 It=∑i=1nαiexp-t/τi where αi and τi are the normalized amplitude and lifetime of component i respectively. The quality of the fit was judged from a χ^2R value close to 1.0 and a random distribution of weighted residuals.
# [2] = test system: HSA and Tf; assay: Complex - HSA - Tf ternary systems (three-dimensional fluorescence and UV-vis); format: binding, human; settings: pH 7.40; for metal ion Tf bound: 10 μM complex, HSA 5.2 equiv., Tf 0.32 equiv.; for dissociation of the complex: 212 μM HSA and 12.8 μM Tf (ratio 1:21.2:1.28)
# Description: The reliability of UV–vis and fluorescence spectroscopic techniques in the characterization of the mode of interaction of In(III) complexes with HSA and (apo)Tf was proven in the former sections. Therefore, as a continuation three-dimensional fluorescence and UV–vis spectra were recorded for InQ3 and GaQ3 in the presence of both HSA and Tf (Figs. 7 and S7).
# In these experiments, the applied HSA-to-Tf ratio corresponds to their physiological ratio in blood serum (630:38). Figure 8 depicts the intensity changes of the ternary system (complex and both proteins) for InQ3 at λEX = 367 nm and λEM = 530 nm in comparison to the respective binary systems (complex and only one type of protein). Apparently, albumin binding of the complex is indeed achieved in the ternary system, although to a lower extent compared to the InQ3 – HSA binary system, and the Tf binding of In(III) becomes more significant at higher protein concentrations. Consequently, the measured intensity reduces parallel with the decreasing (free and albumin bound) InQ3 concentration. […] Based on these spectra, InQ3 and GaQ3 are at least partly HSA-bound. However, minor dissociation of the complexes is evidenced by the UV–vis spectra (Fig. S7) even at this ratio that is more advanced for InQ3 than for GaQ3 (ca. 30% and 10% metal ion is Tf bound, respectively). The differences between the two complexes become more pronounced by getting closer to the physiologically relevant protein concentrations. In the presence of 212 μM HSA and 12.8 μM Tf (ratio: 1:21.2:1.28), the fluorescence of InQ3 is diminished, as most of the complex decomposes and In(III) is bound to Tf. […] To mimic the blood protein concentrations, three-times higher values would be needed; however, under that conditions fluorometric detection becomes inadequate due to the too high absorbance and light scattering of the samples.
# Three-dimensional spectra were recorded for ternary systems containing InQ3 or GaQ3, HSA and Tf in the wavelength range λEX = 250 – 450 nm and λEM = 300 – 700 nm. All three-dimensional spectra were corrected by residual fluorescence of the proteins, inner filter effect and self-absorbance.
# T1 sequence (P02768 25-609): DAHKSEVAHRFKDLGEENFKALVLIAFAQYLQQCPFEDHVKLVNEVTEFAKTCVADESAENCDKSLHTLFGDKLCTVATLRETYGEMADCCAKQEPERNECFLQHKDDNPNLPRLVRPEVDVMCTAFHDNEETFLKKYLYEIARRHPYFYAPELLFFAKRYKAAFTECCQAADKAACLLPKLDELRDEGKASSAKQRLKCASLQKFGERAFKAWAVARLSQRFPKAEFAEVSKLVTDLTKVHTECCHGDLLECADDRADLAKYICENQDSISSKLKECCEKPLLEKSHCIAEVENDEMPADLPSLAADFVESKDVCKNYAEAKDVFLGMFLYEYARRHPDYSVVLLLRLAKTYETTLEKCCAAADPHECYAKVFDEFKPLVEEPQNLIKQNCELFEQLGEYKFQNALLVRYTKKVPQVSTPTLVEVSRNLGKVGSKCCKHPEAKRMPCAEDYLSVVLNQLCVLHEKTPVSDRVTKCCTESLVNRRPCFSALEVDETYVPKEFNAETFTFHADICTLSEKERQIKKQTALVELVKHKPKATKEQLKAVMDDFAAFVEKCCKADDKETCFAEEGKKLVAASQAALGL
Structure (SMILES),τ3 [1],τ4 [1],metal ion Tf bound [2],dissociation of the complex [2]
"[Ga+3].[O-]c1cccc2cccnc12.[O-]c1cccc2cccnc12.[O-]c1cccc2cccnc12 [GaQ3, Tris(8-Quinolinolato)gallium(III), reference compound]",5.0 ± 0.3 ns,14.0 ± 0.2 ns,~10%,25%
"[In+3].[O-]c1cccc2cccnc12.[O-]c1cccc2cccnc12.[O-]c1cccc2cccnc12 [InQ3, Tris(8-Quinolinolato)indium(III)]",5.7 ns and 5.7 ± 0.3 ns,13.8 ns and 13.8 ± 0.6 ns,ca. 30%,practically completely dissociated
